# Results published in patent US7732200B2, “Materials and methods for nerve grafting, selection of nerve grafts, and in vitro nerve tissue culture” (University of Florida Research Foundation, Inc., priority 2001, dated 2010).
# Assays:
# [1] = test system: chick DRG neurons; test: Cryoculture assay using human nerve segments; assay type: cell-based; conditions: DRG neurons 24 h; P<0.001 vs vehicle
# Description: Cryoculture bioassay. Cryoculture is a neurite outgrowth assay in which neurons are cultured directly on fresh/frozen nerve sections and was performed as described previously (Ferguson T A et al. [2000] Mol Cell Neurosci, 16:157-167). Briefly, chondroitinase- and vehicle-treated nerve segments were sectioned at 20 μm, mounted on sterile, aminopropyltriethoxysilane (APTS)-coated coverslips and stored at −20° C. until used. Where indicated, sections were treated with chondroitinase ABC (0.1 unit/ml) or vehicle (50 mM Tris-HCl, pH 8.0), containing 50 mM NaCl) for 2 h at 37° C. Purified dorsal root ganglionic (DRG) neurons from day 8 chick embryos were seeded directly on the nerve sections in a defined N2 medium (Bottenstein J E et al. [1980] Exp Cell Res 125:183-190) containing 10 ng/ml nerve growth factor. Cryoculture assays were terminated after 24 h of incubation by fixation with 100% methanol. Neuritic growth by DRG neurons was accessed by GAP-43 immunofluorescent labeling. Epifluorescent photomicrographs were acquired as described for tissue sections. Neurite lengths were measured directly using IMAGE-PRO PLUS software (MEDIA CYBERNETICS, Silver Springs, Md.). At least 250 neurons with neurites greater than one cell body (˜15 μm) were scored for each condition in each experiment. […]
# [2] = test system: CSPG; test: CSPG neoepitope immunostaining of injured sciatic nerve after a single in vivo injection; parameters: species or system rat; conditions: 1 U in 2 μl injected 2 mm distal to injury; 4 days (transection) or 2 days (crush)
# Description: Surgical procedures for nerve transection and nerve crush experiments. All surgical procedures were performed according to Institutional Animal Care and Use Committee (IACUC) approved protocols. Young adult SPRAGUE DAWLEY rats (HARLAN Indianapolis, Ind.) were deeply anesthetized with xylazine (15 mg/kg, i.m.) followed by ketamine-HCl (110 mg/kg, i.p.). Six animals received bilateral nerve crush injuries. Sciatic nerves were exposed and then crushed with firm pressure for thirty seconds with a DUMONT #5 forceps at a site 4 mm distal to the tendon of the internal obdurator. The crush site was marked with an epineurial suture. In a separate set of experiments, eight rats received bilateral sciatic nerve transection injuries using serrated scissors. The proximal and distal stumps were […] by epineurial neurorrhaphy using 9-0 ETHILON sutures. Fibrin glue (fibrinogen and thrombin) was then applied to stabilize the union. In both injury models, the right sciatic nerves were injected 2-mm distal to the injury with chondroitinase ABC (1 U in 2 μl) (high-purity, protease-free; SIGMA CHEMICAL CO., St. Louis, Mo.). Left sciatic nerves (with the same injury as the right side) were injected with vehicle alone (0.1% bovine serum albumin in PBS). […]
# Immunocytochemistry. Axonal regeneration was assessed by GAP-43 immunofluorescence and digital image analysis. […]
# [3] = test system: sciatic nerve; test: Axonal regeneration after sciatic nerve transection (neurotmesis) and neurorrhaphic repair; assay type: in vivo, rat
substance,measurement,setting,value
chondroitinase ABC,growth-promoting properties of human nerves (neurite length),[1],increased
same,CSPG degradation in extracellular matrix around the injection site,[2],"substantially, if not completely, degraded CSPG"
same,score of axons immediately distal to the coaptation vs control,"[3]; 1 U in 2 μl, 4 days after injury, 7 nerves per condition",two-fold greater
same,animals in which the number of axons entering the distal nerve was greater than in the control nerve,[3]; 4 days after injury,7/7
same,propensity of axons to regrow within basal laminae of the distal nerve,[3]; GAP-43 and laminin double-immunolabeling,unaltered
same,animals with increases greater than 3.5-fold,"[3]; axons immediately distal to coaptation, 4 days",3/7
